Laboratory results: patent publication US10323007B1, “N2N N4-disubstituted quinazoline-2,4-diamines and uses thereof” (University of South Florida, priority 2016, dated 2019)
Converted amounts (≈) assume the structure as drawn.

The compounds below were run on A. baumannii 1403 biofilm (assay: biofilm eradication determination assay, strain 1403). Settings: 90% biofilm eradication, Table 8.
Type: cell-based, Acinetobacter baumannii
Experimental: (§1) These assays were performed as described by us previously,^26,24 as follows. Each of the A. baumannii strains were grown overnight in Mueller Hinton Broth (MHB). The next day these were used to seed fresh MHB to an OD600 of 0.5, with 150 μL then added to the wells of a 96 well plate and grown for 24 hours at 37° C. After 24 hours, the planktonic bacteria were carefully removed and fresh MHB was added with increasing concentrations of lead quinazolines. After incubation at 37° C. for 24 hours, planktonic cells were removed and biofilms were washed three times with phosphate buffered saline (PBS). Biofilms were then resuspended in PBS and plated for cell viability on tryptic soy agar. Biofilm recovery was assessed compared to no drug controls, and determined as percent eradication. This was used to determine MBEC90 values (Minimal Biofilm Eradication Concentration), where the viability of cells within the biofilm was reduced by 90%.

Compound	MBEC90 1403 [µM]
CCCCCc1ccc2nc(NCc3ccccc3)nc(NC)c2c1 [Compound 27, N^2-Benzyl-N^4-methyl-6-pentylquinazoline-2,4-diamine]	12

These compounds were tested on A. baumannii 1651 (assay: minimal bactericidal concentration (MBC) assay, strain 1651). Settings: Acinetobacter baumannii, Table 8, read-out: MBC90 1651.
Type: cell-based
From the text: (§2) Lead quinazolines 4, 5, 26, 29, 27, and 30 were selected to be further evaluated for antimicrobial effects. The first assay utilized was a minimal bactericidal concentration (MBC) assay, to assess whether leads compounds were bacteriostatic or bactericidal. The six lead agents were screened to identify their MBC90 towards each of the six A. baumannii isolates used in the SAR studies (Table 8), however for simplicity only the representative data for isolate 1646 is detailed below (Table 6). […] Further to this, we were able to obtain complete eradication of bacterial growth for these two compounds at 1 μM for 24 and 5 μM for 25.
(§3) MIC and MBC assays were performed in this study as documented by us previously.^17,23,24,25 The A. baumannii strains used are detailed in Table 7.

Compound	MBC [µM]
CCCCCc1ccc2nc(NCc3ccccc3)nc(NC)c2c1 [Compound 27, N^2-Benzyl-N^4-methyl-6-pentylquinazoline-2,4-diamine]	4.1 (≈ 1.37 µg/mL)

Each compound was assayed on A. baumannii 1646 (assay: MIC assay, strain 1646). Settings: Acinetobacter baumannii; Table 6; representative data for isolate 1646; read-out: MIC.
Type: cell-based, Acinetobacter baumannii
Experimental: as §3

Compound	MIC [µM]
CCCCCc1ccc2nc(NCc3ccccc3)nc(NC)c2c1 [Compound 27, N^2-Benzyl-N^4-methyl-6-pentylquinazoline-2,4-diamine]	1 (≈ 0.334 µg/mL)

Same assay, conditions: Acinetobacter baumannii; strain 1646; Tables 1, 3, 4, 5 and footnotes; read-out: 1646 MIC

Compound	MIC [µM]
CCCCCc1ccc2nc(NCc3ccccc3)nc(NC)c2c1 [Compound 27, N^2-Benzyl-N^4-methyl-6-pentylquinazoline-2,4-diamine]	2 (≈ 0.669 µg/mL)

Same assay, conditions: Acinetobacter baumannii; strain 1646; lead quinazolines, Table 8; read-out: MIC 1646

Compound	MIC [µM]
CCCCCc1ccc2nc(NCc3ccccc3)nc(NC)c2c1 [Compound 27, N^2-Benzyl-N^4-methyl-6-pentylquinazoline-2,4-diamine]	1 (≈ 0.334 µg/mL)

What follows are compounds tested on A. baumannii 1650 biofilm (assay: biofilm eradication determination assay, strain 1650). Settings: 90% biofilm eradication, Table 8.
Type: cell-based, Acinetobacter baumannii
Experimental: as §1

Compound	MBEC90 1650 [µM]
CCCCCc1ccc2nc(NCc3ccccc3)nc(NC)c2c1 [Compound 27, N^2-Benzyl-N^4-methyl-6-pentylquinazoline-2,4-diamine]	49

Each compound was assayed on A. baumannii 1651 biofilm (assay: biofilm eradication determination assay, strain 1651). Settings: 90% biofilm eradication, Table 8.
Type: cell-based, Acinetobacter baumannii
Experimental: as §1

Compound	MBEC90 1651 [µM]
CCCCCc1ccc2nc(NCc3ccccc3)nc(NC)c2c1 [Compound 27, N^2-Benzyl-N^4-methyl-6-pentylquinazoline-2,4-diamine]	18

The compounds below were run on A. baumannii 1646 biofilm (assay: biofilm eradication determination assay, strain 1646). Settings: Table 6; representative data for isolate 1646.
Type: cell-based, Acinetobacter baumannii
Experimental: as §1

Compound	MBEC90 [µM]
CCCCCc1ccc2nc(NCc3ccccc3)nc(NC)c2c1 [Compound 27, N^2-Benzyl-N^4-methyl-6-pentylquinazoline-2,4-diamine]	11.5

Same assay, conditions: strain 1646; 90% biofilm eradication; Table 8 and text

Compound	MBEC90 1646 [µM]
CCCCCc1ccc2nc(NCc3ccccc3)nc(NC)c2c1 [Compound 27, N^2-Benzyl-N^4-methyl-6-pentylquinazoline-2,4-diamine]	12

These compounds were tested on A. baumannii 1403 (assay: minimal bactericidal concentration (MBC) assay, strain 1403). Settings: Acinetobacter baumannii, Table 8, read-out: MBC90 1403.
Type: cell-based
From the text: as §2, §3

Compound	MBC [µM]
CCCCCc1ccc2nc(NCc3ccccc3)nc(NC)c2c1 [Compound 27, N^2-Benzyl-N^4-methyl-6-pentylquinazoline-2,4-diamine]	20 (≈ 6.69 µg/mL)

What follows are compounds tested on A. baumannii 1649 (assay: minimal bactericidal concentration (MBC) assay, strain 1649). Settings: Acinetobacter baumannii, Table 8, read-out: MBC90 1649.
Type: cell-based
From the text: as §2, §3

Compound	MBC [µM]
CCCCCc1ccc2nc(NCc3ccccc3)nc(NC)c2c1 [Compound 27, N^2-Benzyl-N^4-methyl-6-pentylquinazoline-2,4-diamine]	43 (≈ 14.4 µg/mL)

Each compound was assayed on A. baumannii 1646 (assay: minimal bactericidal concentration (MBC) assay, strain 1646). Settings: Acinetobacter baumannii, 1646, strain 1646; Table 8 and text; read-out: MBC90 1646.
Type: cell-based, Acinetobacter baumannii
From the text: as §2, §3

Compound	MBC [µM]
CCCCCc1ccc2nc(NCc3ccccc3)nc(NC)c2c1 [Compound 27, N^2-Benzyl-N^4-methyl-6-pentylquinazoline-2,4-diamine]	1.1 (≈ 0.368 µg/mL)

Same assay, conditions: Acinetobacter baumannii; Table 6; representative data for isolate 1646; read-out: MBC90

Compound	MBC [µM]
CCCCCc1ccc2nc(NCc3ccccc3)nc(NC)c2c1 [Compound 27, N^2-Benzyl-N^4-methyl-6-pentylquinazoline-2,4-diamine]	1.1 (≈ 0.368 µg/mL)

These compounds were tested on A. baumannii (assay: MIC assay, A. baumannii isolates (strain not given)). Settings: Acinetobacter baumannii; most isolates besides the 1652 strain; read-out: MIC against most isolates.
Type: cell-based, Acinetobacter baumannii
Experimental: as §3

Compound	MIC [µM]
CCCCCc1ccc2nc(NCc3ccccc3)nc(NC)c2c1 [Compound 27, N^2-Benzyl-N^4-methyl-6-pentylquinazoline-2,4-diamine]	2 (≈ 0.669 µg/mL)

The compounds below were run on A. baumannii 1650 (assay: MIC assay, strain 1650). Settings: Acinetobacter baumannii; strain 1650; Tables 1, 3, 4, 5 and footnotes; read-out: 1650 MIC.
Type: cell-based, Acinetobacter baumannii
Experimental: as §3

Compound	MIC [µM]
CCCCCc1ccc2nc(NCc3ccccc3)nc(NC)c2c1 [Compound 27, N^2-Benzyl-N^4-methyl-6-pentylquinazoline-2,4-diamine]	2 (≈ 0.669 µg/mL)

Same assay, conditions: Acinetobacter baumannii; strain 1650; lead quinazolines, Table 8; read-out: MIC 1650

Compound	MIC [µM]
CCCCCc1ccc2nc(NCc3ccccc3)nc(NC)c2c1 [Compound 27, N^2-Benzyl-N^4-methyl-6-pentylquinazoline-2,4-diamine]	10 (≈ 3.34 µg/mL)

These compounds were tested on A. baumannii 1649 (assay: MIC assay, strain 1649). Settings: Acinetobacter baumannii; strain 1649; Tables 1, 3, 4, 5 and footnotes; read-out: 1649 MIC.
Type: cell-based, Acinetobacter baumannii
Experimental: as §3

Compound	MIC [µM]
CCCCCc1ccc2nc(NCc3ccccc3)nc(NC)c2c1 [Compound 27, N^2-Benzyl-N^4-methyl-6-pentylquinazoline-2,4-diamine]	2 (≈ 0.669 µg/mL)

Same assay, conditions: Acinetobacter baumannii; strain 1649; lead quinazolines, Table 8; read-out: MIC 1649

Compound	MIC [µM]
CCCCCc1ccc2nc(NCc3ccccc3)nc(NC)c2c1 [Compound 27, N^2-Benzyl-N^4-methyl-6-pentylquinazoline-2,4-diamine]	10 (≈ 3.34 µg/mL)

Each compound was assayed on A. baumannii 1651 (assay: MIC assay, strain 1651). Settings: Acinetobacter baumannii; strain 1651; Tables 1, 3, 4, 5 and footnotes; read-out: 1651 MIC.
Type: cell-based, Acinetobacter baumannii
Experimental: as §3

Compound	MIC [µM]
CCCCCc1ccc2nc(NCc3ccccc3)nc(NC)c2c1 [Compound 27, N^2-Benzyl-N^4-methyl-6-pentylquinazoline-2,4-diamine]	2 (≈ 0.669 µg/mL)

Same assay, conditions: Acinetobacter baumannii; strain 1651; lead quinazolines, Table 8; read-out: MIC 1651

Compound	MIC [µM]
CCCCCc1ccc2nc(NCc3ccccc3)nc(NC)c2c1 [Compound 27, N^2-Benzyl-N^4-methyl-6-pentylquinazoline-2,4-diamine]	10 (≈ 3.34 µg/mL)

These compounds were tested on A. baumannii 1652 (assay: minimal bactericidal concentration (MBC) assay, strain 1652). Settings: Acinetobacter baumannii, Table 8, read-out: MBC90 1652.
Type: cell-based
From the text: as §2, §3

Compound	MBC [µM]
CCCCCc1ccc2nc(NCc3ccccc3)nc(NC)c2c1 [Compound 27, N^2-Benzyl-N^4-methyl-6-pentylquinazoline-2,4-diamine]	23 (≈ 7.69 µg/mL)

What follows are compounds tested on A. baumannii 1403 (assay: MIC assay, strain 1403). Settings: Acinetobacter baumannii; strain 1403; Tables 1, 3, 4, 5 and footnotes; read-out: 1403 MIC.
Type: cell-based, Acinetobacter baumannii
Experimental: as §3

Compound	MIC [µM]
CCCCCc1ccc2nc(NCc3ccccc3)nc(NC)c2c1 [Compound 27, N^2-Benzyl-N^4-methyl-6-pentylquinazoline-2,4-diamine]	2 (≈ 0.669 µg/mL)

Same assay, conditions: Acinetobacter baumannii; strain 1403; lead quinazolines, Table 8; read-out: MIC 1403

Compound	MIC [µM]
CCCCCc1ccc2nc(NCc3ccccc3)nc(NC)c2c1 [Compound 27, N^2-Benzyl-N^4-methyl-6-pentylquinazoline-2,4-diamine]	15 (≈ 5.02 µg/mL)

The compounds below were run on A. baumannii 1650 (assay: minimal bactericidal concentration (MBC) assay, strain 1650). Settings: Acinetobacter baumannii, Table 8, read-out: MBC90 1650.
Type: cell-based
From the text: as §2, §3

Compound	MBC [µM]
CCCCCc1ccc2nc(NCc3ccccc3)nc(NC)c2c1 [Compound 27, N^2-Benzyl-N^4-methyl-6-pentylquinazoline-2,4-diamine]	20 (≈ 6.69 µg/mL)

These compounds were tested on A. baumannii 1652 biofilm (assay: biofilm eradication determination assay, strain 1652). Settings: 90% biofilm eradication, Table 8.
Type: cell-based, Acinetobacter baumannii
Experimental: as §1

Compound	MBEC90 1652 [µM]
CCCCCc1ccc2nc(NCc3ccccc3)nc(NC)c2c1 [Compound 27, N^2-Benzyl-N^4-methyl-6-pentylquinazoline-2,4-diamine]	64

What follows are compounds tested on A. baumannii 1649 biofilm (assay: biofilm eradication determination assay, strain 1649). Settings: 90% biofilm eradication, Table 8.
Type: cell-based, Acinetobacter baumannii
Experimental: as §1

Compound	MBEC90 1649 [µM]
CCCCCc1ccc2nc(NCc3ccccc3)nc(NC)c2c1 [Compound 27, N^2-Benzyl-N^4-methyl-6-pentylquinazoline-2,4-diamine]	62

Each compound was assayed on human HepG2 cells (assay: not given). Settings: at 25 μM (highest concentration tested).
Type: cell-based
Experimental: Cytotoxicity assays were performed using human HepG2 cells (human liver epithelial with hepatocellular carcinoma), as described by us previously.^17,24 Cells were cultured in Dulbecco's modified eagle medium (DMEM), supplemented with 10% fetal bovine serum and 1% penicillin-streptomycin for 3 days at 37° C. and 5% CO2. Cells were then diluted to 1×10^5 ml^−1 using fresh DMEM and added to 96 well tissue culture plates at a volume of 100 μL. Plates were incubated for 24 hours at 37° C. and 5% CO2, allowing the cells to adhere to the plastic. […] Plates were then incubated for 48 hours at 37° C. and 5% CO2. After 48 hours the DMEM was removed and 100 μL of new media was added containing MTT (3-(4, 5-dimethylthiazol-2-yl)-2, 5-diphenyltetrazolium bromide), followed by incubation for four hours at 37° C. and 5% CO2. […] Lead compounds were solvated in 100% DMSO for these studies, which served as the negative control. LD50 values were determined for each compound by comparison to vehicle only controls.

Compound	HepG2 cell viability [%]
CCCCCc1ccc2nc(NCc3ccccc3)nc(NC)c2c1 [Compound 27, N^2-Benzyl-N^4-methyl-6-pentylquinazoline-2,4-diamine]	31

Same assay, conditions: human, 48 h

Compound	LD50(HepG2) [µM]
CCCCCc1ccc2nc(NCc3ccccc3)nc(NC)c2c1 [Compound 27, N^2-Benzyl-N^4-methyl-6-pentylquinazoline-2,4-diamine]	12

What follows are compounds tested on A. baumannii 1652 (assay: MIC assay, strain 1652). Settings: Acinetobacter baumannii; strain 1652; Tables 1, 3, 4, 5 and footnotes; read-out: 1652 MIC.
Type: cell-based, Acinetobacter baumannii
Experimental: as §3

Compound	MIC [µM]
CCCCCc1ccc2nc(NCc3ccccc3)nc(NC)c2c1 [Compound 27, N^2-Benzyl-N^4-methyl-6-pentylquinazoline-2,4-diamine]	10 (≈ 3.34 µg/mL)

Same assay, conditions: Acinetobacter baumannii; strain 1652; lead quinazolines, Table 8; read-out: MIC 1652

Compound	MIC [µM]
CCCCCc1ccc2nc(NCc3ccccc3)nc(NC)c2c1 [Compound 27, N^2-Benzyl-N^4-methyl-6-pentylquinazoline-2,4-diamine]	20 (≈ 6.69 µg/mL)
